This is an account of results in patent US10028931B2, “Synergistic compositions for treating microbial infections” (UNIVERSITY OF ROCHESTER, priority 2014, dated 2018).

Structures are written as SMILES. In brackets after ≈: the same amount, converted by molar mass. Several values for one entry are separate records, joined by “and”; a condition that tells them apart may be missing. Equal values may be shown once. Read-outs that look alike come from different tables or passages of the source.

The test system of assay [1] is Staphylococcus aureus strain UAMS-1. In words: Antimicrobial susceptibility testing (MIC, broth microdilution). The format is cell-based. The note with it: S. aureus UAMS-1, Mueller Hinton broth, 37° C. The essentials:
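About 1×10^5 CFU of S. aureus UAMS-1 were exposed to two-fold dilutions (0–256 μg mL−1) in Mueller Hinton broth for 18 h at 37 °C. MIC was the lowest concentration with no visible growth. MBC was determined by counting cells in wells at and above the MIC.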
A general note: In broth dilution the organism is exposed to a series of concentrations in liquid medium.

The target in assay [2] is T1, S. aureus RNase P (RnpA+rnpB) (Staphylococcus aureus, UniProt P0A0H5).
T1 sequence (P0A0H5 1-117): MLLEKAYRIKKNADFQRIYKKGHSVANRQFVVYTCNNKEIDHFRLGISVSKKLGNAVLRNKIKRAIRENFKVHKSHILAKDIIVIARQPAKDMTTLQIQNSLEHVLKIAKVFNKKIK
Briefly: RNase P activity assay (precursor tRNA processing). The format is biochemical. As to conditions: for IC50: ptRNATyr processing, gel densitometry, read-out: RNase P IC50. The method, boiled down: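 Reconstituted RnpA+rnpB (1.25 pmol) processed 10 pmol heat-denatured ptRNATyr for 15 min at 37 °C in low-salt (5 mM MgCl2) or high-salt (100 mM MgCl2, 800 mM NH4Cl) Tris pH 8.0 buffer with inhibitor or DMSO. Mature tRNATyr quantified by urea-PAGE densitometry, expressed as % of DMSO control.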

Assay [3] concerns Staphylococcus aureus. Briefly: Antimicrobial activity of ointment / petroleum jelly suspensions (FIG. 2, Panel A). As to conditions: subinhibitory concentration in petroleum jelly, S. aureus. The format is cell-based. The source says:
The addition of an RnpA inhibitor, such as RNPA2000, to mupirocin ointment (Teva Pharmaceuticals USA (North Wales, Pa.)) improved the antimicrobial efficacy of the ointment and is also effective against mupirocin resistant S. aureus. […] See FIG. 2, Panel A, upper left picture. […] See FIG. 2, Panel A, upper right picture.

Assay [4] has as its target T2, RnpA (Staphylococcus aureus, UniProt P0A0H5).
T2 sequence (P0A0H5 1-117): T1 sequence (P0A0H5 1-117)
Briefly: RnpA mRNA degradation activity assay. The format is biochemical. As to conditions: RnpA mRNA degradation, gel densitometry; read-out: RnpA IC50. The essentials: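 Total S. aureus RNA (1 μg) or in vitro transcribed spa mRNA (1 pmol) was incubated with 20 pmol RnpA plus compound for 15–30 min at 37° C in 50 mM Tris-HCl pH 8.0, 2 mM NaCl, 2 mM MgCl2. RNA was resolved on denaturing formaldehyde-agarose gels and quantified by densitometry. Percent inhibition is relative to RNA-alone and RnpA+DMSO controls.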

Assay [5] has as its system RNase P-mediated tRNA processing. In words: Precursor tRNA processing within bacterial cells (FIG. 1, Panel B). The format is cell-based. An excerpt: Mupirocin is a generically available antibiotic that inhibits isoleucyl tRNA synthetase in bacterial cells. The enzyme charges tRNA molecules, allowing them to participate in protein translation. RnpA is an enzyme, which together with the ribozyme, rnpB, forms RNase P riboprotein complex that prepares precursor tRNA molecules for charging (it works upstream of tRNA synthetase in the tRNA processing pathway).

Assay [6] concerns S. aureus strain UAMS-1. Briefly: Fractional Inhibitory Concentration testing with mupirocin. The format is cell-based. As to conditions: combined with mupirocin, S. aureus UAMS-1, Mueller Hinton broth, 18 hours; synergistic FIC≤0.5. The protocol: The RNase P inhibitors described herein were tested for Fractional Inhibitory Concentration (FIC) in the presence of mupirocin. FIC testing was performed to determine the combined effects of mupirocin and the RnpA inhibitors as described herein. Individual wells of a 96-well microtiter plate were inoculated with 1×10^5 CFU of S. aureus strain UAMS-1 in a Mueller Hinton broth. Each row of the plate contained increasing concentrations of RNPA1000 or RNPA2000 (two-fold increments; 0, 0.004, 0.008, 0.016, 0.03, 0.06, 0.125, 0.25, 0.5, 1, 2, or 4×MIC), whereas each column contained increasing concentrations of the indicated antibiotic (two-fold increments; 0, 0.06, 0.125, 0.25, 0.5, 1, 2, or 4×MIC). Plates were incubated for 18 hours at 37° C., and growth was detected by the unaided eye. The FIC was determined using the following formula: (MIC of Drug A in Combination/MIC of Drug A Alone)+(MIC of Drug B in Combination/MIC of Drug B Alone)=FIC. A synergistic interaction was defined as an FIC value≤0.5, no interaction as an FIC of 0.5-4, or an antagonistic interaction FIC>4.

[7] abbreviates: Staphylococcus aureus, UAMS1, 18 h, read-out: MIC.

A word on the MIC: it is the lowest concentration that inhibits growth of the organism. One may read the IC50 as the concentration that gives 50% inhibition. Take `CC(C)c1ccc(OCC(=O)NNC(=S)NC(=O)c2ccco2)cc1` [RNPA2000]: the minimal inhibitory concentration (MIC) in assay [1] (18 hours, listed as MC-220000) was 8 µg/mL (≈ 22.1 µM); in assay [1] (setting [7]) it was 16 µg/mL (≈ 44.3 µM). In addition, the “precursor tRNA processing in vitro” value in assay [2] (FIG. 1, Panel A) was “inhibits precursor tRNA processing”. Moreover, the IC50 was 140 µM and 300 µM in assay [2]; 275 µM and 180 µM in assay [4]. Further, the “antimicrobial properties in petroleum jelly” value in assay [3] is listed as “no antimicrobial properties”. Further, in assay [5], the “precursor tRNA processing within bacterial cells” value is “inhibits precursor tRNA processing”. For the same molecule, the “FIC with Mupirocin” value in assay [6] was found to be 0.44.

`Cc1occc1C(=O)NNC(=S)NC(=O)COc1ccc(Cl)cc1Cl` [ST5523108]: in assay [1] (setting [7]), the MIC was 4 µg/mL (≈ 9.94 µM). Further, the IC50 is 75 µM in assay [2] and above 500 µM in assay [4]. In addition, in assay [6], the “FIC with Mupirocin” value was determined as 0.49.

On to `CC(C)c1ccccc1OCC(=O)NNC(=S)NC(=O)/C=C/c1cccs1` [ST5523210], for which the MIC in assay [1] (setting [7]) was determined as 32 µg/mL (≈ 79.3 µM). For the same molecule, the figures for the IC50 in assay [2] and in assay [4] were 110 µM and 45 µM, respectively. Also, in assay [6], the “FIC with Mupirocin” value is 0.75.

As to `CC(C)c1ccc(OCC(=O)NNC(=S)NC(=O)C2CC2)cc1` [ST5523314], the minimal inhibitory concentration (MIC) in assay [1] (setting [7]) was 8 µg/mL (≈ 23.9 µM). The IC50 in assay [2] and in assay [4] was above 500 µM in each case. The “FIC with Mupirocin” value in assay [6] turned out to be 1.

`Cc1ccc(OCC(=O)NNC(=S)NC(=O)c2ccc(Br)o2)c(C)c1` [ST5523326]: the MIC in assay [1] (setting [7]) amounted to 8 µg/mL (≈ 18.8 µM). The figures for the IC50 in assay [2] and in assay [4] were 75 µM and 380 µM, respectively. For the same molecule, the “FIC with Mupirocin” value in assay [6] is on record as 0.375.

On to `Cc1cccc(C)c1OCC(=O)NNC(=S)NC(=O)c1ccc(-c2ccccc2)cc1` [ST5523335], for which the MIC in assay [1] (setting [7]) worked out at 128 µg/mL (≈ 295 µM). For the same molecule, the IC50 was 100 µM in assay [2] and above 500 µM in assay [4]. Further, the “FIC with Mupirocin” value in assay [6] is recorded as 0.375.

For the molecule `O=C(COc1ccc(-c2ccccc2)cc1)NNC(=S)NC(=O)c1ccc(Br)o1` [ST5524465], the MIC in assay [1] (setting [7]) came to 32 µg/mL (≈ 67.5 µM). The results for the IC50 in assay [2] and in assay [4] were 65 µM and 45 µM, respectively. Besides, in assay [6], the “FIC with Mupirocin” value is recorded as 0.625.

With `CC(C)(C)c1ccc(OCC(=O)NNC(=S)NC(=O)c2ccco2)c(Br)c1` [ST5524527], the MIC in assay [1] (setting [7]) was 8 µg/mL (≈ 17.6 µM). The IC50 in assay [2] was 200 µM; in assay [4] it was above 500 µM. Also, the “FIC with Mupirocin” value in assay [6] is recorded as 0.625.

As for `O=C(COc1ccc(Cl)cc1Br)NNC(=S)NC(=O)c1ccco1` [ST5525958], the MIC in assay [1] (setting [7]) stood at 32 µg/mL (≈ 74 µM). In addition, the results for the IC50 in assay [2] and in assay [4] were 125 µM and above 500 µM, respectively. Further, the “FIC with Mupirocin” value in assay [6] is recorded as 0.75.

Regarding `CCOc1ccc(C(=O)NC(=S)NNC(=O)COc2cc(C)ccc2C(C)C)cc1` [ST5528173], in assay [1] (setting [7]), the MIC amounted to 32 µg/mL (≈ 74.5 µM). For the same molecule, the IC50 in assay [2] is 230 µM; in assay [4], above 500 µM. For the same molecule, the “FIC with Mupirocin” value in assay [6] is listed as 1.

As for `CCCOc1ccccc1C(=O)NNC(=S)NC(=O)c1ccco1` [ST5528488], the MIC in assay [1] (setting [7]) was 4 µg/mL (≈ 11.5 µM). In addition, the concentration for half-maximal inhibition (IC50) in assay [2] was determined as 95 µM; in assay [4] it was 430 µM. In addition, in assay [6], the “FIC with Mupirocin” value was found to be 0.5.

As to `CC(C)c1ccccc1OCC(=O)NNC(=S)NC(=O)c1ccccc1OCCOc1ccccc1` [ST5528880], the MIC in assay [1] (setting [7]) was above 128 µg/mL. Besides, the figures for the IC50 in assay [2] and in assay [4] were 380 µM and above 500 µM, respectively. Also, in assay [6], the “FIC with Mupirocin” value is reported as 0.56.

On to `Cc1ccc(C(C)C)c(OCC(=O)NNC(=S)NC(=O)c2ccccc2OCCOc2ccccc2)c1` [ST5528960], for which, in assay [1] (setting [7]), the minimal inhibitory concentration (MIC) is above 128 µg/mL. For the same molecule, the concentration for half-maximal inhibition (IC50) in assay [2] is above 500 µM; in assay [4], 40 µM. The “FIC with Mupirocin” value in assay [6] was found to be 0.56.

For `CC(Oc1ccc2ccccc2c1)C(=O)NNC(=S)NC(=O)c1ccco1` (stereo not drawn) [ST5682782], in assay [1] (setting [7]), the MIC is above 128 µg/mL. Besides, the IC50 in assay [2] and in assay [4] was above 500 µM in each case. Besides, the “FIC with Mupirocin” value in assay [6] is listed as 0.25.

As for `CCCc1ccc(OCC(=O)NNC(=S)NC(=O)c2ccco2)cc1` [ST5682783], in assay [1] (setting [7]), the MIC is above 128 µg/mL. Moreover, the IC50 in assay [2] is 65 µM; in assay [4], above 500 µM. Moreover, the “FIC with Mupirocin” value in assay [6] was found to be 0.31.

`CCCOc1ccc(C(=O)NNC(=S)NC(=O)c2ccco2)cc1` [ST5684191]: the minimal inhibitory concentration (MIC) in assay [1] (setting [7]) worked out at 8 µg/mL (≈ 23 µM). Besides, the IC50 in assay [2] and in assay [4] was above 500 µM throughout. Moreover, the “FIC with Mupirocin” value in assay [6] is 0.375.

Regarding `O=C(NNC(=S)NC(=O)c1ccco1)c1ccc(F)cc1` [ST5703018], the minimal inhibitory concentration (MIC) in assay [1] (setting [7]) was found to be 64 µg/mL (≈ 208 µM). In addition, the IC50 in assay [2] and in assay [4] was above 500 µM throughout. Besides, the “FIC with Mupirocin” value in assay [6] turned out to be 0.625.
